Where a name gives a salt, the structure may show the parent alone. Read-outs that look alike come from different tables or passages of the source.
What was measured:
[1] = system: NF-κB pathway in THP-1 dual cells; test: THP-1 Dual reporter assay, NF-κB pathway (SEAP); assay type: cell-based; settings: Homo sapiens, THP1-Dual, read-out: THP1 Dual EC50 (μM) NFkB
Method in brief: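 Luminescence (IRF arm, luciferase under ISG54 minimal promoter with five ISREs) and absorbance at 630 or 655 nm (NF-κB arm, SEAP under IFN-β minimal promoter with NF-κB elements) were measured in supernatants of THP-1 dual cells stimulated 18 h with compound.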

[2] = system: interferon regulatory factor (IRF) pathway in THP-1 dual cells; test: THP-1 Dual reporter assay, IRF pathway (luciferase); assay type: cell-based; settings: Homo sapiens, THP1-Dual, read-out: THP1 Dual EC50 (μM) IRF
Method in brief: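 Compounds (STING agonists) stimulated THP-1 dual cells for 18 h; the cells carry an ISG54 promoter/ISRE-driven luciferase (IRF) and an IFN-β minimal promoter/NF-κB element-driven SEAP. Luciferase in conditioned medium was read by luminescence immediately; SEAP by absorbance at 630 or 655 nm after 1 or 2 h at 37° C.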

[3] = 18 h stimulation, absorbance at 630 or 655 nm

| EC50 [1, 3] | EC50 ([2]; 18 h stimulation, luminescence) | Compound | EC50 ([1]; 18 h) | EC50 ([2]; 18 h) |
| --- | --- | --- | --- | --- |
| < 1 µM | < 1 µM | Cc1ccc(N2CCC[C@H](N(Cc3ccnc(C)c3)Cc3cn(C4CC4)c4cc(N5CCOC(CO)C5)c(F)cc4c3=O)C2)cn1 (stereo partly drawn) [Example 71, 1-cyclopropyl-6-fluoro-7-[2-(hydroxymethyl)morpholin-4-yl]-3-({[(3S)-1-(6-methylpyridin-3-yl)piperidin-3-yl][(2-methylpyridin-4-yl)methyl]amino}methyl)-1,4-dihydroquinolin-4-one] |  |  |
| 1 to 10 µM | 1 to 10 µM | Cc1cc(CN(Cc2cn(C3CC3)c3cc(Cl)c(F)cc3c2=O)[C@H]2CCCN(c3cnccc3CO)C2)ccn1 [Example 74, 7-chloro-1-cyclopropyl-6-fluoro-3-({[(3S)-1-[4-(hydroxymethyl)pyridin-3-yl]piperidin-3-yl][(2-methylpyridin-4-yl)methyl]amino}methyl)-1,4-dihydroquinolin-4-one] |  |  |
| 1 to 10 µM | 1 to 10 µM | Cc1ccc(N2CCC[C@H](N(Cc3ccnc(C)c3)Cc3cn(C4CC4)c4cc(C5C[C@@H](O)CN5)ccc4c3=O)C2)cn1 (stereo partly drawn) [Example 76, 1-cyclopropyl-7-[(4R)-4-hydroxypyrrolidin-2-yl]-3-({[(3S)-1-(6-methylpyridin-3-yl)piperidin-3-yl][(2-methylpyridin-4-yl)methyl]amino}methyl)-1,4-dihydroquinolin-4-one] |  |  |
| 1 to 10 µM | 1 to 10 µM | Cc1ccc(N2CCC[C@H](N(Cc3ccnc(C)c3)Cc3cn(CC(N)=O)c4ccccc4c3=O)C2)cn1 [Example 77, 2-[3-({[(3S)-1-(6-methylpyridin-3-yl)piperidin-3-yl][(2-methylpyridin-4-yl)methyl]amino}methyl)-4-oxo-1,4-dihydroquinolin-1-yl]acetamide] |  |  |
| < 1 µM | < 1 µM | Cc1ccc(N2CCC[C@H](N(Cc3ccnc(C)c3)Cc3cn(C4CC4)c4cc(N5CCC(CO)C5)c(F)cc4c3=O)C2)cn1 (stereo partly drawn) [Example 79, 1-cyclopropyl-6-fluoro-7-[3-(hydroxymethyl)pyrrolidin-1-yl]-3-({[(3S)-1-(6-methylpyridin-3-yl)piperidin-3-yl][(2-methylpyridin-4-yl)methyl]amino}methyl)-1,4-dihydroquinolin-4-one hydrochloride] |  |  |
| < 1 µM | < 1 µM | Cc1cnc(N2CCC[C@H](N(Cc3ccnc(C)c3)Cc3cn(C4CC4)c4cc(N5CCC[C@H](O)C5)c(F)cc4c3=O)C2)cn1 [Example 81, 1-cyclopropyl-6-fluoro-7-[(3S)-3-hydroxypiperidin-1-yl]-3-({[(3S)-1-(5-methylpyrazin-2-yl)piperidin-3-yl][(2-methylpyridin-4-yl)methyl]amino}methyl)-1,4-dihydroquinolin-4-one] |  |  |
| < 1 µM | < 1 µM | Cc1cc(CN(Cc2cn(C3CC3)c3cc(OCCO)c(F)cc3c2=O)[C@H]2CCCN(c3cnc(C)c(F)c3)C2)ccn1 [Example 83, 1-cyclopropyl-6-fluoro-3-({[(3S)-1-(5-fluoro-6-methylpyridin-3-yl)piperidin-3-yl][(2-methylpyridin-4-yl)methyl]amino}methyl)-7-(2-hydroxyethoxy)-1,4-dihydroquinolin-4-one] |  |  |
|  |  | Cc1cc(CN(Cc2cn(C3CC3)c3cc(OCCO)c(F)cc3c2=O)[C@H]2CCCN(c3cccnc3)C2)ccn1 [Example 84, 1-cyclopropyl-6-fluoro-7-(2-hydroxyethoxy)-3-({[(2-methylpyridin-4-yl)methyl][(3S)-1-(pyridin-3-yl)piperidin-3-yl]amino}methyl)-1,4-dihydroquinolin-4-one hydrochloride] | < 1 µM | < 1 µM |
| < 1 µM | < 1 µM | C#CCOCCOCCOCCOCCOCCC(=O)Nc1ccc(CNC(=O)OCCOc2cc3c(cc2F)c(=O)c(CN(Cc2ccnc(C)c2)[C@H]2CCCN(c4cccnc4)C2)cn3C2CC2)cc1 [Example 84A, 2-{[1-cyclopropyl-6-fluoro-3-({[(2-methylpyridin-4-yl)methyl][(3S)-1-(pyridin-3-yl)piperidin-3-yl]amino}methyl)-4-oxo-1,4-dihydroquinolin-7-yl]oxy}ethyl N-{[4-(4,7,10,13,16-pentaoxanonadec-18-ynamido)phenyl]methyl}carbamate] |  |  |
| < 1 µM | < 1 µM | Cc1cc(CN(Cc2cn(C3CC3)c3cc(N4CC[C@H](CO)C4)c(F)cc3c2=O)[C@H]2CCCN(c3cccnc3)C2)ccn1 [Example 87, 1-cyclopropyl-6-fluoro-7-[(3S)-3-(hydroxymethyl)pyrrolidin-1-yl]-3-({[(2-methylpyridin-4-yl)methyl][(3S)-1-(pyridin-3-yl)piperidin-3-yl]amino}methyl)-1,4-dihydroquinolin-4-one hydrochloride] |  |  |
| < 1 µM | < 1 µM | Cc1cc(CN(Cc2cn(C3CC3)c3cc(OCCO)c(F)cc3c2=O)[C@H]2C[C@H](F)CN(c3cccnc3)C2)ccn1 [Example 89, 1-cyclopropyl-6-fluoro-3-({[(3S,5S)-5-fluoro-1-(pyridin-3-yl)piperidin-3-yl][(2-methylpyridin-4-yl)methyl]amino}methyl)-7-(2-hydroxyethoxy)-1,4-dihydroquinolin-4-one hydrochloride] |  |  |
| < 1 µM | < 1 µM | Cc1cc(CN(Cc2cn(C3CC3)c3cc(OCCO)c(F)cc3c2=O)[C@H]2CCCN(c3cncc(F)c3)C2)ccn1 [Example 90, 1-cyclopropyl-6-fluoro-3-({[(3S)-1-(5-fluoropyridin-3-yl)piperidin-3-yl][(2-methylpyridin-4-yl)methyl]amino}methyl)-7-(2-hydroxyethoxy)-1,4-dihydroquinolin-4-one hydrochloride] |  |  |
| < 1 µM | < 1 µM | Cc1cc(CN(Cc2cn(C3CC3)c3cc(N4CC[C@@H](CO)C4)c(F)cc3c2=O)[C@H]2CCCN(c3cnccn3)C2)ccn1 [Example 91, 1-cyclopropyl-6-fluoro-7-[(3R)-3-(hydroxymethyl)pyrrolidin-1-yl]-3-({[(2-methylpyridin-4-yl)methyl][(3S)-1-(pyrazin-2-yl)piperidin-3-yl]amino}methyl)-1,4-dihydroquinolin-4-one hydrochloride] |  |  |
| < 1 µM | < 1 µM | Cc1cc(CN(Cc2cn(C3CC3)c3cc(OCCO)c(F)cc3c2=O)[C@H]2CCCN(c3ccc(N(C)C)nc3)C2)ccn1 [Example 92, 1-cyclopropyl-3-({[(3S)-1-[6-(dimethylamino)pyridin-3-yl]piperidin-3-yl][(2-methylpyridin-4-yl)methyl]amino}methyl)-6-fluoro-7-(2-hydroxyethoxy)-1,4-dihydroquinolin-4-one hydrochloride] |  |  |
| < 1 µM | < 1 µM | Cc1cc(CN(Cc2cn(C3CC3)c3cc(OCCO)c(F)cc3c2=O)[C@H]2CCCN(c3cncc(C(F)(F)F)c3)C2)ccn1 [Example 93, 1-cyclopropyl-6-fluoro-7-(2-hydroxyethoxy)-3-({[(2-methylpyridin-4-yl)methyl][(3S)-1-[5-(trifluoromethyl)pyridin-3-yl]piperidin-3-yl]amino}methyl)-1,4-dihydroquinolin-4-one hydrochloride] |  |  |
| < 1 µM | < 1 µM | Cc1cc(CN(Cc2cn(C3CC3)c3cc(N4CC[C@H](CO)C4)c(F)cc3c2=O)[C@H]2CCCN(c3cnccn3)C2)ccn1 [Example 94, 1-cyclopropyl-6-fluoro-7-[(3S)-3-(hydroxymethyl)pyrrolidin-1-yl]-3-({[(2-methylpyridin-4-yl)methyl][(3S)-1-(pyrazin-2-yl)piperidin-3-yl]amino}methyl)-1,4-dihydroquinolin-4-one hydrochloride] |  |  |
| < 1 µM | < 1 µM | Cc1cc(CN(Cc2cn(C3CC3)c3cc(OCCO)c(F)cc3c2=O)[C@H]2C[C@H](F)CN(c3cnccn3)C2)ccn1 [Example 95, 1-cyclopropyl-6-fluoro-3-({[(3S,5S)-5-fluoro-1-(pyrazin-2-yl)piperidin-3-yl][(2-methylpyridin-4-yl)methyl]amino}methyl)-7-(2-hydroxyethoxy)-1,4-dihydroquinolin-4-one hydrochloride] |  |  |
| > 10 µM | 1 to 10 µM | Cc1cc(CN(Cc2cn(C3CC3)c3cc(OCCO)c(F)cc3c2=O)[C@H]2CCCN(c3cccnn3)C2)ccn1 [Example 96, 1-cyclopropyl-6-fluoro-7-(2-hydroxyethoxy)-3-({[(2-methylpyridin-4-yl)methyl][(3S)-1-(pyridazin-3-yl)piperidin-3-yl]amino}methyl)-1,4-dihydroquinolin-4-one] |  |  |
|  |  | Cc1cc(CN(Cc2cn(C3CC3)c3cc(OCCO)c(F)cc3c2=O)[C@H]2CCCN(c3ccc(Cl)nc3)C2)ccn1 [Example 97, 3-({[(3S)-1-(6-chloropyridin-3-yl)piperidin-3-yl][(2-methylpyridin-4-yl)methyl]amino}methyl)-1-cyclopropyl-6-fluoro-7-(2-hydroxyethoxy)-1,4-dihydroquinolin-4-one hydrochloride] | < 1 µM | < 1 µM |
| < 1 µM | < 1 µM | Cc1cc(CN(Cc2cn(C3CC3)c3cc(N4CCC[C@H](O)C4)c(F)cc3c2=O)[C@H]2CCCN(c3cnccn3)C2)ccn1 [Example 98, 1-cyclopropyl-6-fluoro-7-[(3S)-3-hydroxypiperidin-1-yl]-3-({[(2-methylpyridin-4-yl)methyl][(3S)-1-(pyrazin-2-yl)piperidin-3-yl]amino}methyl)-1,4-dihydroquinolin-4-one hydrochoride] |  |  |
| < 1 µM | < 1 µM | COc1cc(CN(Cc2cn(C3CC3)c3cc(F)c(F)cc3c2=O)[C@H]2CCCN(c3ccc(NC(C)=O)nc3)C2)ccn1 [Example 99, N-{5-[(3S)-3-{[(1-cyclopropyl-6,7-difluoro-4-oxo-1,4-dihydroquinolin-3-yl)methyl][(2-methoxypyridin-4-yl)methyl]amino}piperidin-1-yl]pyridin-2-yl}acetamide] |  |  |

Source: patent US12643879B2, “Functionalized heterocyclic compounds as modulators of stimulator of interferon genes (STING)” (RYVU THERAPEUTICS S.A., priority 2019, dated 2026)
